In assay [1] the target is T1, DNA (cytosine-5)-methyltransferase 1 (Homo sapiens, UniProt P26358).
Description: Inhibition of human recombinant DNMT1
The target in assay [2] is DNA (cytosine-5)-methyltransferase 3B (Homo sapiens, UniProt Q9UBC3).
Description: Inhibition of human recombinant DNMT3b2
For assay [3], the target named is T1, DNA (cytosine-5)-methyltransferase 1. To be noted: 45 uM.
Description: Inhibition of human recombinant DNMT1 at 45 uM

This note sets out measurements from ChEMBL document CHEMBL1151876, “Constrained (l-)-S-adenosyl-l-homocysteine (SAH) analogues as DNA methyltransferase inhibitors” (Bioorg Med Chem Lett, 2009).

Each structure is given as a SMILES string. A value given as a limit tells only on which side of the number the result lay.

The IC50 is the point on the concentration scale where inhibition reaches its midpoint. A higher IC50 goes with weaker potency. For orientation: inhibition means how much of the control response was suppressed. Read a high inhibition as strong suppression.

T1 sequence (P26358 whole entry): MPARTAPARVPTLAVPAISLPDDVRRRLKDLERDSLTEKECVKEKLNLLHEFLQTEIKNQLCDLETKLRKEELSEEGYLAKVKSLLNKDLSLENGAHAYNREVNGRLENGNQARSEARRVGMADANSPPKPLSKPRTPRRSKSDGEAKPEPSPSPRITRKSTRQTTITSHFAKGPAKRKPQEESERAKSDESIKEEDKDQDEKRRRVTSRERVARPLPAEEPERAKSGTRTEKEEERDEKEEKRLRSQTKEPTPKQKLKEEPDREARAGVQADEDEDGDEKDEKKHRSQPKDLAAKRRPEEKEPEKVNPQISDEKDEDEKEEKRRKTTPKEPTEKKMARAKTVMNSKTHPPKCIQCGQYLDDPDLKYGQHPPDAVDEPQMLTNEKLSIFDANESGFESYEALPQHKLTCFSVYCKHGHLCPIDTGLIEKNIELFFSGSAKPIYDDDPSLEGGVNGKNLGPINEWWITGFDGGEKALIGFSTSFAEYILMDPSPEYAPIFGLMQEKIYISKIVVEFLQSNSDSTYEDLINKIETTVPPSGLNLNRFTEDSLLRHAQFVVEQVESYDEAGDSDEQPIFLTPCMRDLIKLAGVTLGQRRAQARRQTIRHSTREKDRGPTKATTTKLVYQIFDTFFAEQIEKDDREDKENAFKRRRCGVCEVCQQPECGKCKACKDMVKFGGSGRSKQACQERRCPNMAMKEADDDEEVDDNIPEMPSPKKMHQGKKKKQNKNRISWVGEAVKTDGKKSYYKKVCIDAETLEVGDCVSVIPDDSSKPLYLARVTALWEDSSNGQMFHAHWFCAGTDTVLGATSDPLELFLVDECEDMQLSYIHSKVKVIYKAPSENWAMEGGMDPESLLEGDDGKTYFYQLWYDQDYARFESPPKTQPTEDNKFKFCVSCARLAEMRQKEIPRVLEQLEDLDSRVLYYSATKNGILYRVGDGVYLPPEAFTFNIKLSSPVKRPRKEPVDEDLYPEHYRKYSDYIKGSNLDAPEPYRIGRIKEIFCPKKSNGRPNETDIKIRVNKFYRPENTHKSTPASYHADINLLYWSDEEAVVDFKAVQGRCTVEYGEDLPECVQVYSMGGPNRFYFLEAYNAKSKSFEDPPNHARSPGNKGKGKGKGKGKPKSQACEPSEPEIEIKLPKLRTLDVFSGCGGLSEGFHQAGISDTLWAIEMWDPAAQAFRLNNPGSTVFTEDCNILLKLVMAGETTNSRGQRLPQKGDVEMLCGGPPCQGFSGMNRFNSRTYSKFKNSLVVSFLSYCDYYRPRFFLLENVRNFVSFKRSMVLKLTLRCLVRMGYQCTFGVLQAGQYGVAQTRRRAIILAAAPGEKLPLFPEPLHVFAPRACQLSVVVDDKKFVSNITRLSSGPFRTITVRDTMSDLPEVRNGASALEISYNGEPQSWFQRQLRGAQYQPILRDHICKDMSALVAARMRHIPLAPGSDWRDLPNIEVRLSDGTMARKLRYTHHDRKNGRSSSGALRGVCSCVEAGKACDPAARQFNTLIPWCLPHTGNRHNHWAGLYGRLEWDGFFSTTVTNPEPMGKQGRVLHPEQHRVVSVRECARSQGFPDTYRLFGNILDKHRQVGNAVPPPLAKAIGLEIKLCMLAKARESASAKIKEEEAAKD

As to `Nc1ncnc2c1ncn2[C@@H]1O[C@H](CS[C@@H]2CCC[C@@H]2N)[C@@H](O)[C@H]1O`, the IC50 in assay [1] was determined as 94 µM. For the compound `Nc1ncnc2c1ncn2[C@@H]1O[C@H](CS[C@H]2CN[C@H](C(=O)O)C2)[C@@H](O)[C@H]1O`, the 50% inhibitory concentration (IC50) in assay [2] is 54 µM; in assay [1], greater than 100 µM.

As for `O=C(O)[C@@H]1C[C@H](SC[C@H]2O[C@@H](n3cnc4c(NCCc5ccc(-c6ccccc6)cc5)nc(Cl)nc43)[C@H](O)[C@@H]2O)CN1`, 2.5 µM corresponded to half-maximal inhibition in assay [1] (IC50). With `Nc1ncnc2c1ncn2[C@@H]1O[C@H](CS[C@@H]2CN[C@H](C(=O)O)C2)[C@@H](O)[C@H]1O`, the IC50 in assay [2] stood at 0.3 µM; in assay [1], 1.1 µM.

The compound `Nc1ncnc2c1ncn2[C@@H]1O[C@H](CSC2CNC2)[C@@H](O)[C@H]1O` registered a concentration for half-maximal inhibition (IC50) in assay [2] greater than 100 µM.

In assay [1], `Nc1ncnc2c1ncn2[C@@H]1O[C@H](CS[C@@H]2CCN[C@H](C(=O)O)C2)[C@@H](O)[C@H]1O` had an IC50 greater than 100 µM.

Regarding `Nc1nc(Cl)nc2c1ncn2C1O[C@H](CS[C@H]2CCNC2)[C@@H](O)[C@H]1O` (single isomer, unassigned), in assay [2], the IC50 was greater than 45 µM.

In turn, `Nc1nc(Cl)nc2c1ncn2C1O[C@H](CS[C@@H]2CN[C@H](C(=O)O)C2)[C@@H](O)[C@H]1O` (single isomer, unassigned) displayed a concentration for half-maximal inhibition (IC50) in assay [1] of 0.82 µM.

As to `NCCCSC[C@H]1O[C@@H](n2cnc3c(N)ncnc32)[C@H](O)[C@@H]1O`, the IC50 in assay [2] is 17 µM; in assay [1], greater than 45 µM. As to `NC(=O)[C@@H]1C[C@H](SC[C@H]2O[C@@H](n3cnc4c(N)ncnc43)[C@H](O)[C@@H]2O)CN1`, the inhibition in assay [3] is 1%. For the compound `COC(=O)[C@@H]1C[C@H](SC[C@H]2O[C@@H](n3cnc4c(N)ncnc43)[C@H](O)[C@@H]2O)CN1C`, in assay [1], 4.5 µM corresponded to half-maximal inhibition (IC50). That is a single-digit micromolar value.

In the case of `CN1CC[C@@H](SC[C@H]2O[C@@H](n3cnc4c(N)ncnc43)[C@H](O)[C@@H]2O)C1`, the IC50 in assay [1] is greater than 10 µM. In assay [3], `Nc1ncnc2c1ncn2[C@@H]1O[C@H](CS[C@H]2CCCNC2)[C@@H](O)[C@H]1O` displayed an inhibition of 18%. For `Nc1ncnc2c1ncn2[C@@H]1O[C@H](CS[C@H]2CCN[C@H](C(=O)O)C2)[C@@H](O)[C@H]1O`, in assay [1], the concentration for half-maximal inhibition (IC50) came to 8 µM. For `Nc1ncnc2c1ncn2[C@@H]1O[C@H](CS[C@@H]2CCNC2)[C@@H](O)[C@H]1O`, the IC50 in assay [2] is 12 µM; in assay [1], 4.8 µM. In assay [1], `COC(=O)[C@@H]1C[C@H](SC[C@H]2O[C@@H](n3cnc4c(N)ncnc43)[C@H](O)[C@@H]2O)CN1` showed a 50% inhibitory concentration (IC50) of 4 µM. As to `NCCSC[C@H]1O[C@@H](n2cnc3c(N)ncnc32)[C@H](O)[C@@H]1O`, in assay [1], the concentration for half-maximal inhibition (IC50) worked out at 18 µM. Against the preceding compound, the IC50 is about 4.5-fold higher. In turn, `Nc1ncnc2c1ncn2[C@@H]1O[C@H](CSCC[C@H](N)C(=O)O)[C@@H](O)[C@H]1O` [S-ADENOSYLHOMOCYSTEINE] showed an IC50 in assay [2] of 0.2 µM. Take `Nc1ncnc2c1ncn2[C@@H]1O[C@H](CS[C@H]2CCNC2)[C@@H](O)[C@H]1O`: the half-inhibitory concentration (IC50) in assay [2] was found to be 26 µM; in assay [1], 44 µM. `Nc1ncnc2c1ncn2[C@@H]1O[C@H](CS[C@H]2CCN[C@@H](C(=O)O)C2)[C@@H](O)[C@H]1O` displayed a half-inhibitory concentration (IC50) in assay [1] greater than 100 µM. Same read-out and setting: the value for `CN1C[C@@H](SC[C@H]2O[C@@H](n3cnc4c(N)ncnc43)[C@H](O)[C@@H]2O)C[C@H]1C(=O)O` was greater than 100 µM.
